Paper PMC9171067, “A High Throughput Cell-Based Screen Assay for LINE-1 ORF1p Expression Inhibitors Using the In-Cell Western Technique” (Frontiers in Pharmacology, 2022)
Like-named read-outs stand apart in the source and are kept apart here.

Experiments:
[1] = system: LINE-1 retrotransposition; assay: LINE-1 retrotransposition dual-luciferase assay (pWA367 reporter) in HeLa cells; type: cell-based, human; details: 10 μM
Experimental: This assay is utilized to measure the influence of the compounds on LINE-1 retrotransposition or the L1 5′UTR promoter activity. A 200:1 ratio of FL-L1 or pWA367 and pCMV-Rluc was transfected into HeLa cells, Rluc was served as a control to normalize the Firefly luciferase activity level. Six hours post-transfection, cells were reseeded in 96-well plates, and the plates were incubated for up to 1 day. Next, compounds #1:Hydroxyprogesterone (10μM, 20 μM), # 2: 2,2':5′,2″-Terthiophene (10μM, 20 μM) and # 3: Ethynyl estradiol (10μM, 20 μM) were added. 72–96 h after adding tested compounds to the cells, 25 μl passive lysis buffer was added in each well to lyse cells, and then, 20 μl lysate was detected by dual-luciferase reporter assay system (Promega, USA). Furthermore, the activity levels of Renilla and Firefly luciferase were quantified using Promega Luciferase Assay Kit (Promega) on a Berthold microplate reader.

[2] = system: LINE-1 ORF1p expression; assay: Immunoblotting of LINE-1 ORF1p in T-47D cells; type: cell-based, human; details: 48 h
Experimental: Cells were collected and lysed with NP-40 buffer (Beyotime). The protein lysis was boiled for 20 min at 100 C in SDS-PAGE loading buffer. Equal amounts of cell lysate were […]. Proteins were transferred onto a PVDF membrane, blocked with 5% skim milk, and probed with anti-ORF1p antibody (diluted 1:1000) and anti-β-actin antibody (diluted 1:5,000) at 4°C overnight. After four wash steps with PBS plus 0.1% Tween 20 (PBST), the membrane was incubated with 1:5,000 dilution of HRP-conjugated goat-anti-mouse, HRP-conjugated goat-anti-rabbit, IRDye® 800CW Goat anti-Rabbit 926–32,211 (1:10,000, LI-COR) and IRDye® 700CW Goat anti-Mouse 926–32,210 (1:10,000, LI-COR) secondary antibodies for 1 h at room temperature. After four wash steps with PBS plus 0.1% Tween 20 (PBST), signals were detected using Western Lightning chemiluminescence reagent or analyzed with the Odyssey infrared imaging system and the software program as specified in the Odyssey software manual.

[3] = system: LINE-1 5'-UTR promoter; assay: L1-FL luciferase reporter driven by the LINE-1 5'-UTR promoter in 293 T cells; type: cell-based, human
[4] = system: LINE-1 ORF1p expression; assay: In-Cell Western (ICW) assay of LINE-1 ORF1p expression in T-47D cells; type: cell-based, human; details: for EC50: Homo sapiens, T47D, T-47D cells 15000/well, serially diluted compound, 24 h incubation, ICW, read-out: EC50 for diminishing LINE-1 ORF1p expression level; for Inhibition Activity (%) of LINE-1 ORF1p expression: ICW screen, T47D cells, compounds 10 μM, 48 h
Experimental: T-47D cells grown at 1×10^3 cells per well in 96-well plates (Corning Incorporated Costar, #3603). After 24 h incubation, chemical compounds (10 μM) were added to each well. After 48 h incubation, plates were fixed with 4% paraformaldehyde (PFA) for 20min at room temperature (RT). Then the cells were permeabilized with 0.2% Triton X-100 for 15min at RT, and blocked with Odyssey Blocking Buffer (TBS) (LI-COR, 9275000) for 1 h at RT. The cells were incubated at 4°C overnight with a rabbit monoclonal anti-ORF1p antibody (diluted 1:200, Abcam) and a mouse monoclonal anti-beta-actin antibody (diluted 1:250, Abcam) with gentle shakes. After five washes with PBS, the cells were stained with an IRDye® 800RD Goat anti-Rabbit antibody (diluted 1:400, LI-COR, #926–68071) and IRDye® 680CW Goat anti-Mouse antibody (1:600, LI-COR, #926–32210) at RT for 2 h. The microplates, were scanned with the Odyssey system (LI-COR), and the integrated fluorescence intensities representing the protein expression levels were acquired using Image Studio Ver 5.2 software ([Egorina et al., 2006]). Compared with DMSO control, compounds with an inhibition rate over 50% were defined as promising compounds.
(§1) The 50% cytotoxic concentration (CC50) values of 5 drug leads were measured using normal […] cell line HUVEC and breast cancer cell line T-47D at 6 different inhibitor concentrations. HUVEC and T47-D cell lines in the logarithmic phase were reseeded into 96-well plates (Nest Inc.) at a density of 1×10^3 cells/well and the plates were incubated for up to 2 days. At the end of each experiment, cells were incubated with 10 µl of the CCK-8 reagent (Vazyme) at 37°C for 2 h. The optical density (OD) at 450 nm was measured by a microplate reader (PerkinElmer Inc.) according to the manufacturer’s instructions. The data are expressed as % of the control. The experiments were repeated at least three times. The 50% effective concentration (EC50) of 5 drugs were measured using breast cancer cell line T-47D and 6 different inhibitor concentrations.

[5] = CCK-8 cell viability (CC50) in T-47D cells; type: cell-based; details: human
Experimental: as §1

[6] = system: T47D cells; assay: CCK8 cell proliferation assay, T47D; type: cell-based, human; details: IFNα17 500 Units/mL, 6 days
Experimental: To analyze the anti-proliferation effects of the three compounds and IFN17α against carcinoma cells, NCI-H661, NCI-H446, T47-D, MRC-5 and WI-38 cell lines in the logarithmic phase were reseeded into 96-well plates (Nest Inc.) at a density of 1×10^4 cells/well and the plates were incubated for 24 h. […] Cells were incubated with 10 µl of the CCK-8 reagent (Vazyme) each day at 37°C for 2 h. The optical density (OD) at 450 nm was measured by a microplate reader (PerkinElmer Inc.) according to the manufacturer’s instructions. The experiments were repeated at least three times.

[7] = system: NCl-H446 cells; assay: CCK8 cell proliferation assay, NCl-H446; type: cell-based, human; details: IFNα17 200 or 500 Units/mL, 6 days
Experimental: (§2) To analyze the anti-proliferation effects of the three compounds and IFN17α against carcinoma cells, NCI-H661, NCI-H446, T47-D, MRC-5 and WI-38 cell lines in the logarithmic phase were reseeded into 96-well plates (Nest Inc.) at a density of 1×10^4 cells/well and the plates were incubated for 24 h. Next, IFN17α (200U/mL) was incubated with NCI-H661, NCI-H446, T47-D and MRC-5 cells, compounds #1(Hydroxyprogesterone), #2 (2,2':5′,2″-Terthiophene) and #3 (Ethynyl estradiol) were added at the concentrations of 10μM and 20 μM respectively, for consecutive 6 days. Cells were incubated with 10 µl of the CCK-8 reagent (Vazyme) each day at 37°C for 2 h. The optical density (OD) at 450 nm was measured by a microplate reader (PerkinElmer Inc.) according to the manufacturer’s instructions. The experiments were repeated at least three times.

[8] = system: LINE-1 RNA; assay: RT-qPCR of LINE-1 RNA level in T-47D cells; type: cell-based, human; details: IFNα17 200 Units/mL, 48 h
From the text: Total RNA was extracted from cells using TRIZOL Reagent (Invitrogen). RNA was reverse transcribed to cDNA using MLV Reverse Transcriptase (Invitrogen) with random primers. The cDNAs were quantified using SsoFast EvaGreen Supermix (Bio-Rad) with Bio Rad iCycler iQ5 Real-Time PCR systems. Primer sequences for cDNAs were as follows: (5′-AATGAGATCACATGGACACAGGAAG-3’/5′- TGTATACATGTGCCATGCTGGTGC-3′).

[9] = system: NCl-H661 cells; assay: CCK8 cell proliferation assay, NCl-H661; type: cell-based, human; details: IFNα17 200 or 500 Units/mL, 6 days
Experimental: as §2

Cc1cn([C@H]2C=C[C@@H](CO)O2)c(=O)[nH]c1=O [d4T, reference compound]
effect on LINE-1 retrotransposition (Fluc/Rluc) [1]: inhibited LINE-1 retrotransposition | effect on LINE-1 ORF1p level by immunoblotting [2]: little effect

C#C[C@]1(O)CC[C@H]2[C@@H]3CCc4cc(O)ccc4[C@H]3CC[C@@]21C [#3, Ethynyl estradiol]
suppression of luciferase value (L1-FL) ([3]; 10 μM): over 60% | effect on LINE-1 retrotransposition (Fluc/Rluc) [1]: best potent activity | EC50 [4]: 12.4 µM | Inhibition Activity (%) of LINE-1 ORF1p expression [4]: 60% | CC50 ([5]; T-47D breast cancer cells, T-47D cells 1000/well, CCK-8, read-out: CC50): 91.4 µM

c1csc(-c2ccc(-c3cccs3)s2)c1 [#2, 2,2':5′,2″-Terthiophene]
effect on luciferase value (L1-FL) ([3]; 10 μM): mild effects | EC50 [4]: 32.3 µM | Inhibition Activity (%) of LINE-1 ORF1p expression [4]: 56% | CC50 [5]: 95.5 µM

IFNα17: interferon used as positive control in inhibiting LINE-1 ORF1p expression level in the ICW assay
effect on luciferase value (L1-FL) ([3]; IFNα17 200 Unit/mL, 500 Unit/mL): mild effects | effect of IFNα17 on proliferation of T47D [6]: inhibition became obvious | effect of IFNα17 on proliferation of NCl-H446 [7]: significantly decrease | suppression of LINE-1 RNA level [8]: over 60% | effect on ICW fluorescence value (ORF1p) ([4]; T-47D cells, increasing doses of IFNα17): decreased fluorescence value in a dose-dependent way | effect of IFNα17 on proliferation of NCl-H661 [9]: significantly decrease | effect on LINE-1 ORF1p level by immunoblotting [2]: obviously decrease ORF1p level in a dose-dependent manner
